# Assay results published in patent publication US12012615B2, “Method of making induced pluripotent stem cells using p53 inhibitors” (Kyoto University, priority 2008, dated 2024).
# Tests used:
# Myc = test: Luciferase reporter driven by a Myc responsive element in HDF; format: cell-based, human; details: luciferase activity two days after introduction
# Description: (§1) FIGS. 24A-24C show effects of p53 suppression on p21 and Myc. Genes regulated (4 increased and 7 decreased) by p53 suppression were introduced into HDFs together with the four reprogramming factors (FIG. 24A) or the four reprogramming factors and the p53 shRNA (FIG. 24B). On day 24 (FIG. 24A) or day 28 (FIG. 24B) post-transduction, numbers of iPS cell colonies were counted. **; p<0.01 compared to DsRed control (n=3). Luciferase reporters containing responsive elements of p53 or Myc, or that driven by the polymerase II promoter were introduced into HDFs, together with the mock retroviral vector, the p53 shRNA, the four reprogramming factors, or the three factors devoid of Myc. Two days later, luciferase activities were determined (c). **; p<0.01, *; p<0.05 compared to the mock control (n=3).
# (§2) The p21 protein binds to Myc and suppresses its transcriptional activity (Kitaura, H. et al., J Biol. Chem., 275(14), 10477-10483 (2000)). This might contribute to the increased efficiency of iPS cell generation by p53-p21 suppression. We evaluated the Myc activity in HDF by introducing luciferase reporters driven by either a p53-responsive element or a Myc responsive element (FIG. 24C). We confirmed the p53 activity was reduced by the shRNA. […] The effect was stronger than that observed with the introduction of the four factors including c-Myc.
# p53 [1] = test: Luciferase reporter driven by a p53-responsive element in HDF; format: cell-based, human; details: luciferase activity two days after introduction
# Description: as §1, §2
# HDF = test: DNA microarray gene expression, control HDF against p53 knockdown HDF; format: cell-based, human
# Description: To elucidate p53 target genes that are responsible for the observed enhancement of iPS cell generation, we compared gene expression between p53 wild-type MEF and p53-null MEF by DNA microarrays, and between control HDF and p53 knockdown HDF. In MEF, 1590 genes increased and 1485 genes decreased >5 fold in p53-null MEF. In HDF, 290 genes increased and 430 genes decreased >5 fold by p53 shRNA. Between mouse and human, eight increased genes are common, including v-myb myeloblastosis viral oncogene homolog (MYB) and a RAS oncogenes family, RAB39B (Table 2).
# HDFs = test: Human iPS cell generation with p53 shRNA co-transduction; format: cell-based; details: co-introduced with the four reprogramming factors
# Description: The retroviral vector expressing either p53 shRNA or control RNA was transduced into HDFs together with the four reprogramming factors. To rescue RNAi-mediated knockdown, a retroviral vector for mouse p53 was co-introduced.
# p53 [2] = test: p53 protein level by western blot after shRNA transduction; format: cell-based, human; details: western blot six days after retroviral transduction
# Method: Retroviral vectors for p53 shRNA or control RNA were transduced into HDFs. Six days after the transduction, p53 protein levels were determined by western blot analyses.
# (B) In another experiment, we examined effects of shRNA against human p53 (shRNA2; Stewart S. A. et al. RNA 9(4), 493 (2003)). Retroviral vectors for shRNA expression, pMKO.1-puro (Addgene #8452), pMKO.1-puro p53 shRNA1 (Addgene #10671) and pMKO.1-puro p53 shRNA2 (Addgene #10672; shRNA sequence is shown in SEQ ID NO:28), were obtained from Addgene. Retroviruses for shRNAs, and the four or three reprogramming factors were produced in PLAT-E cells. For iPS cell generation, equal amounts of PLAT-E supematants containing each retrovirus were mixed and transduced to HDF.
substance,measurement,setting,value
"p53 shRNA2: shRNA against human p53, SEQ ID NO:28, retroviral vector pMKO.1-puro p53 shRNA2 (Addgene #10672) (GACTCCAGTGGTAATCTACTGCTCGAGCAGTAGATTACCACTGGAGTC)",Myc activity (luciferase reporter),Myc,significantly enhanced
same,p53 activity (luciferase reporter),p53 [1],reduced
same,number of genes decreased >5 fold,HDF,430 genes
same,number of genes increased >5 fold,HDF,290 genes
same,numbers of human iPS cell colonies,HDFs,markedly increased
same,p53 protein level,p53 [2],effectively suppressed
